Results on 13 molecules are retold here after patent publication EP0117429A1, “Phosphorous containing compounds as inhibitors of enkephalinases” (SCHERING CORPORATION, priority 1983, dated 1984).

Structures can show the parent of a compound that is named as a salt.

What is called IC50 is the midpoint of a concentration-inhibition curve. A high value points to weaker potency.

In assay [1] the target is T1, enkephalinase A (Rattus norvegicus, UniProt P07861).
T1 construct: from tissue; host or cells: rat brain (minus cerebellum), Triton X-100 solubilised membranes, DEAE Sephacel fraction
T1 sequence (P07861 1-750): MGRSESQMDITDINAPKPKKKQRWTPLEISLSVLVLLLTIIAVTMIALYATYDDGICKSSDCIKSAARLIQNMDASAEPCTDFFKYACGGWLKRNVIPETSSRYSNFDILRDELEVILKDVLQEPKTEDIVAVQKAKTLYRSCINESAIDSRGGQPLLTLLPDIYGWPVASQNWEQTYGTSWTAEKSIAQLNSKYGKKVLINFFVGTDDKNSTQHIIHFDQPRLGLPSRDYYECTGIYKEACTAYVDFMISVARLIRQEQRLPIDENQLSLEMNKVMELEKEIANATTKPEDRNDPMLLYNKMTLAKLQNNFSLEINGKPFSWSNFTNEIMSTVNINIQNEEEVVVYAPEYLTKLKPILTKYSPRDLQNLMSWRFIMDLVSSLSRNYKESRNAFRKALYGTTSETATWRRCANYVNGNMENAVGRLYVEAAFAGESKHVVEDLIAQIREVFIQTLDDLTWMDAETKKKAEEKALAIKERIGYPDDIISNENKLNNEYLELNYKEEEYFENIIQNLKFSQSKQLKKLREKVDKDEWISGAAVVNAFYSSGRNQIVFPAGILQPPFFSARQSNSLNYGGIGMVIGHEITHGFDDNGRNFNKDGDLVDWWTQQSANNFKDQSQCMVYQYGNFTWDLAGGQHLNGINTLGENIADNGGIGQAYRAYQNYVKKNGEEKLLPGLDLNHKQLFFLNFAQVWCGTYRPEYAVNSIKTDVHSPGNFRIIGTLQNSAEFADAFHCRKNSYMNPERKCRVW
Description: Enkephalinase A inhibition, radiometric assay with 3H-Met5-ENK substrate and TLC separation. The following applies: enkephalinase A fraction from rat brain membranes; substrate 3H-Met5-ENK 40 nM; 90 minutes at 37°C; pH 7.4. The class given is biochemical, Sprague-Dawley rats. The method, then: Enzyme activity was separated by taking the brain tissue (minus cerebellum) from Sprague-Dawley rats and homogenizing it in 30 volumes of 50 mM Tris buffer, pH 7.4, using a Brinkmann Polytron. The resulting homogenate is centrifuged at 50,000 x g for 15 minutes. The pellet, constituting the membrane bound enzyme material, was washed by resuspending it in Tris and re- centrifuging it 4 times.
Following washing, solubilization of the membrane pellet was achieved by incubating it for 45 minutes at 37 °C in the presence of 15 volumes (based on initial brain weight) of 50 mM Tris-l% Triton X-100 buffer, pH 7.4. After centrifugation at 100,000 x g for 60 minutes to remove non-solubilized material, the Triton soluble supernatant was layered on a 1.5 x 30 cm DEAE Sephacel column previously equilibrated with.50 mM Tris-0.1% Triton, pH 7.4. Material was eluted from the column using a 1 liter linear NaCl gradient running from 0.0 to 0.4 M. Effluent was collected in 7 ml fractions, each of which was assayed for enkephalin degrading activity.
Enkephalin degrading activity was monitored using a radiometric assay. The substrate was ^3H-Met5-ENK (50.1 Ci/mmol, New England Nuclear) diluted in 0.05 M Tris buffer, pH 7.4, such that the final reaction mixture concentration was 40 nM. Total reaction mixture volume including enzyme and substrate was 250 µl. Incubation was carried out for 90 minutes at 37°C. To stop the reaction, tubes were transferred to a boiling water bath for 15 minutes.
Assay products were separated form one another using thin layer chromatography. […] Total running time was approximately 17 hours. TLC tanks are gassed with nitrogen prior to starting the run. Following the run, markers are visualized with ninhydrin spray. These spots, along with remaining plate regions, are cut from the plate and the radioactivity corresponding to each monitored using liquid scintillation counting. IC50's are determined using linear regression techniques.

Assay [2] relates to Male CF1 mice. Kind of assay: Potentiation of the analgesic effects of DAEAM, mouse tailflick test. It is filed as in vivo. Particulars: dose at which half the test animals displayed analgesia, DAEAM icv, tailflick latency 30 minutes after DAEAM, cut-off 10 seconds. As for the experimental part:
The following test procedure was utilized to assess the noted compounds' potentiation of the analgesic effects of (D-Ala^2-Met^5)-enkephalinamide (DAEAM).
Male CF1 mice (19-23 g) from Charles River Breeding Labs, Mass., were used (N=10/dose or dose combination). […] Tailflick latencies were re-determined 30 minutes later, as this has previously been determined to be the time of peak analgesia for DAEAM, and a cut-off of 10 seconds is employed.

As to `O=C(O)CCNC(=O)C(Cc1ccc(-c2ccccc2)cc1)CP(=O)(O)O` (racemic) [R,S, -C6H5, -CONH-, -(CH2)2-, -OH, N-[(R,S)-3-(1,1'-Biphenyl-4-yl)-1-oxo-2-(phosphonomethyl)-propyl]-β-alanine], in assay [1], inhibition was half-maximal at 1.3 nM (IC50). The same measure, in the same setting: for `O=C(CCNC(=O)[C@H](Cc1ccccc1)CP(=O)(O)O)OCCOc1ccccc1` [S, -H, -CONH-, -(CH2)2-, -O(CH2)2OC6H5, N-[(S)-1-Oxo-3-phenyl-2-(phosphonomethyl)propyl)-β-alanine 2-phenoxyethyl ester] the value was 210 nM; for `O=C(O)CCNC(=O)C(Cc1ccc(C(F)(F)F)cc1)CP(=O)(O)O` (racemic) [R,S, -CF3, -CONH-, -(CH2)2-, -OH, N-[1-Oxo-2-phosphonomethyl-3-(4-trifluoromethyl)phenylpropyl]-β-alanine], 60 nM. Take `CCOC(=O)c1ccc(NC(=O)C(Cc2ccccc2)CP(=O)(O)O)cc1` (centres unmarked) [S, -H, -CONH-, p-C6H4-, -OC2H5, 4-[1-oxo-3-phenyl-2-(phosphonomethyl)propyl]aminobenzoic acid ethyl ester]: in assay [1], the IC50 is 63 nM. Consider “3-[(S) -2- (Diethoxyphosphinyl) methyl -1-oxo-3 -nhenyl- propyl]amino-2-(R,S)-methylpropanoic acid calcium salt [S, -H, -CONH-, -CH2C^**H(CH3)-, -OH]”, for which the IC50 in assay [1] was found to be 25.5 nM. Further, the “Oral ED50, in mice” value in assay [2] stood at 20 mg/kg. `O=C(O)CCCNC(=O)C(Cc1ccccc1)CP(=O)(O)O` (centres unmarked) [S, -H, -CONH-, -(CH2)3-, -OH, 4-[1-oxo-3-phenyl-2-(phosphonomethyl)propyl]amino-butanoic acid] returned an IC50 in assay [1] of 80 nM. Regarding `CCOC(=O)CCNC(=O)C(Cc1ccc(C(F)(F)F)cc1)CP(=O)(O)O` (racemic) [R,S, -CF3, -CONH-, -(CH2)2-, -OC2H5], the IC50 in assay [1] worked out at 2200 nM. Molecule `O=C(O)CCNC(=O)[C@@H](Cc1ccccc1)CP(=O)(O)O` [R, -H, -CONH-, -(CH2)2-, -OH, N-[(R)-1-oxo-3-phenyl-2-)phosphonomethyl)propyl] -(β-alanine calcium salt] had an IC50 in assay [1] of 600 nM. As to “N-L(S)-1-Oxo-3-phenyl-2-(phosphonomethyl)propyl]-β-alanine calcium salt [S, -H, -CONH-, -(CH2)2-, -OH]”, in assay [1], inhibition was half-maximal at 19 nM (IC50). Also, in assay [2], the “Oral ED50, in mice” value was determined as 3 mg/kg.

`O=C(O)CCNC(=O)[C@H](Cc1ccc(Cl)cc1)CP(=O)(O)O` [S, -Cl, -CONH-, -(CH2)2-, -OH, N-[3-(a-chloro)phenyl-1-oxo-2-(phosphonomethyl)propyl]-B-alanine]: the IC50 in assay [1] worked out at 11 nM. In addition, the “Oral ED50, in mice” value in assay [2] came out at 25 mg/kg. In the case of `CCOC(=O)CCNC(=O)[C@H](Cc1ccccc1)CP(=O)(O)O` [S, -H, -CONH-, -(CH2)2-, -OC2H5, N-[(S)=1-Oxo-3-phenyl-2-(phostphonomethyl)propyl] -β-alanine ethyl ester calcium salt], in assay [1], 60 nM corresponded to half-maximal inhibition (IC50). Further, the “Oral ED50, in mice” value in assay [2] is 2.5 mg/kg.

In assay [1], `O=C(O)C(O)CNC(=O)C(Cc1ccccc1)CP(=O)(O)O` (centres unmarked) [S, -H, -CONH-, -CH2C^***H(OH)-, -OH, 3-[1-Oxo-3-phenyl-2-(phosphonomethyl)propyl]amino-2-hydroxypropanoic Acid] came in with an IC50 of 25 nM. This counts as double-digit nanomolar.

In turn, `CC(OC(=O)NC(Cc1ccccc1)CP(=O)(O)O)C(=O)O` [R,S, -H, -NHCOO-, -C^**H(CH3)-, -OH, 2-[2-phenyl-l-(phosphonomethyl)ethyl]aminocarbonyloxy-propanoic acid] yielded an IC50 in assay [1] of 100 nM.
